Test results as given in patent US10231954B2, “Neurodegenerative therapies” (LYTIX BIOPHARMA AS, priority 2014, dated 2019).

Assays:
Details in all cases: 100 micromolar inhibitor concentration; 100 is no change
TAK1 = biological target: T1, TAK1 (Homo sapiens, UniProt O43318); experiment: Kinase profiling TAK1; assay type: biochemical
T1 sequence (O43318 1-303 limits assumed): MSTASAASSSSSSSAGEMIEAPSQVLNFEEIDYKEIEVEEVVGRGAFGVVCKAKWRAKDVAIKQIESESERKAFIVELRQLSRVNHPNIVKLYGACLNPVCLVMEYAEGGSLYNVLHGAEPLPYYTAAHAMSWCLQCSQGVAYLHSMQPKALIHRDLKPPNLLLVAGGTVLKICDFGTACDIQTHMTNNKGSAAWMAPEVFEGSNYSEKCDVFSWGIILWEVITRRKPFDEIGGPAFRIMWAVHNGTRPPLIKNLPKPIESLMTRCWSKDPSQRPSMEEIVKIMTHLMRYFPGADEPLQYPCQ
T1 sequence (Q15750 437-504 partner limits assumed): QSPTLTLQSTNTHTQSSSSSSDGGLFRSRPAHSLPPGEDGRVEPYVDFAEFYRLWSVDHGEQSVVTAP
Excerpt: (§1) Any value less that 25 is considered to be highly significant inhibition.

JNK1 = JNK1 (Homo sapiens, UniProt P45983); experiment: Kinase profiling JNK1; assay type: biochemical
Excerpt: as §1

MLK3 = MLK3 (Homo sapiens, UniProt Q16584); experiment: Kinase profiling MLK3; assay type: biochemical
Excerpt: as §1

PLK1 = PLK1 (Homo sapiens, UniProt P53350); experiment: Kinase profiling PLK1; assay type: biochemical
Excerpt: as §1

HIPK2 = HIPK2 (Homo sapiens, UniProt Q9H2X6); experiment: Kinase profiling HIPK2; assay type: biochemical
Excerpt: as §1

MSK1 = MSK1 (Homo sapiens, UniProt O75582); experiment: Kinase profiling MSK1; assay type: biochemical
Excerpt: as §1

SRPK1 = SRPK1 (Homo sapiens, UniProt Q96SB4); experiment: Kinase profiling SRPK1; assay type: biochemical
Excerpt: as §1

HER4 = HER4 (Homo sapiens, UniProt Q15303); experiment: Kinase profiling HER4; assay type: biochemical
Excerpt: as §1

NEK6 = NEK6 (Homo sapiens, UniProt Q9HC98); experiment: Kinase profiling NEK6; assay type: biochemical
Excerpt: as §1

JAK2 = JAK2 (Homo sapiens, UniProt O60674); experiment: Kinase profiling JAK2; assay type: biochemical
Excerpt: as §1

AMPK (hum) = experiment: Kinase profiling AMPK (hum); assay type: biochemical, human
Excerpt: as §1

CAMK1 = CAMK1 (Homo sapiens, UniProt Q14012); experiment: Kinase profiling CAMK1; assay type: biochemical
Excerpt: as §1

TrkA = TrkA (Homo sapiens, UniProt P04629); experiment: Kinase profiling TrkA; assay type: biochemical
Excerpt: as §1

S6K1 = S6K1 (Homo sapiens, UniProt P23443); experiment: Kinase profiling S6K1; assay type: biochemical
Excerpt: as §1

PIM1 = PIM1 (Homo sapiens, UniProt P11309); experiment: Kinase profiling PIM1; assay type: biochemical
Excerpt: as §1

PKBa = PKBa (Homo sapiens, UniProt P31749); experiment: Kinase profiling PKBa; assay type: biochemical
Excerpt: as §1

PDK1 = biological target: T2, PDK1 (Homo sapiens, UniProt O15530); experiment: Kinase profiling PDK1; assay type: biochemical
T2 sequence (O15530 1-556): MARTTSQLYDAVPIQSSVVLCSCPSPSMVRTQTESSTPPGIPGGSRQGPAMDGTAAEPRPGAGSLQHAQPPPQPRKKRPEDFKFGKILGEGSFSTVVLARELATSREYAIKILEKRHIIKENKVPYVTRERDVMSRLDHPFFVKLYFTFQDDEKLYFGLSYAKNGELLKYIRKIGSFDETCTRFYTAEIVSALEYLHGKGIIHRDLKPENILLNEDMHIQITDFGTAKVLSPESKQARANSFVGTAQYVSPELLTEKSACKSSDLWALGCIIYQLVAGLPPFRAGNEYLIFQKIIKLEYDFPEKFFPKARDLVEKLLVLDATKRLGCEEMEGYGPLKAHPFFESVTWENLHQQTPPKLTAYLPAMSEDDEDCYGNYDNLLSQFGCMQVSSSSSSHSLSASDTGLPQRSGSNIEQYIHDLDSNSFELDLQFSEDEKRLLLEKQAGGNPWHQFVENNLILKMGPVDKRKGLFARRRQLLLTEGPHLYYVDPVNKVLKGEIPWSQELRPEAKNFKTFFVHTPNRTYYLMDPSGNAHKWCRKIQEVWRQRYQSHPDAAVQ
Excerpt: as §1

SRPK1, sequence (Q96SB4 whole entry, species assumed): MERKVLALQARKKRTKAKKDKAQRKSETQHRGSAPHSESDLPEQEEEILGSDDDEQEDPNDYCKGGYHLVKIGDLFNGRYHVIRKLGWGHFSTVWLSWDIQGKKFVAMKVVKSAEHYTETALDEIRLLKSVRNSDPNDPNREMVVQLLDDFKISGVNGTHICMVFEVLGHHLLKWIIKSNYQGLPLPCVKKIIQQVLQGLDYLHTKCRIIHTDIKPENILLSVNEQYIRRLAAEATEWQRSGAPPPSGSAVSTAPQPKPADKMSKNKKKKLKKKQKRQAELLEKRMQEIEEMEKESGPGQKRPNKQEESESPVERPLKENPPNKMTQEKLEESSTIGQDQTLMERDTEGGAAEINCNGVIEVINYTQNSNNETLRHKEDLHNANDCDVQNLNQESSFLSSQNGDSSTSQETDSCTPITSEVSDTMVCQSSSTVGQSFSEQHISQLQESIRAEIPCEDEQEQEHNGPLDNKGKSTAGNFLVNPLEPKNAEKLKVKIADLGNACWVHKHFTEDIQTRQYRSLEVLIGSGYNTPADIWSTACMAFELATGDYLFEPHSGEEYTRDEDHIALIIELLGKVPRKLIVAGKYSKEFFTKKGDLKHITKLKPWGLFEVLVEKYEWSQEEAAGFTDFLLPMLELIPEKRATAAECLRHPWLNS
MLK3, sequence (Q16584 whole entry, species assumed): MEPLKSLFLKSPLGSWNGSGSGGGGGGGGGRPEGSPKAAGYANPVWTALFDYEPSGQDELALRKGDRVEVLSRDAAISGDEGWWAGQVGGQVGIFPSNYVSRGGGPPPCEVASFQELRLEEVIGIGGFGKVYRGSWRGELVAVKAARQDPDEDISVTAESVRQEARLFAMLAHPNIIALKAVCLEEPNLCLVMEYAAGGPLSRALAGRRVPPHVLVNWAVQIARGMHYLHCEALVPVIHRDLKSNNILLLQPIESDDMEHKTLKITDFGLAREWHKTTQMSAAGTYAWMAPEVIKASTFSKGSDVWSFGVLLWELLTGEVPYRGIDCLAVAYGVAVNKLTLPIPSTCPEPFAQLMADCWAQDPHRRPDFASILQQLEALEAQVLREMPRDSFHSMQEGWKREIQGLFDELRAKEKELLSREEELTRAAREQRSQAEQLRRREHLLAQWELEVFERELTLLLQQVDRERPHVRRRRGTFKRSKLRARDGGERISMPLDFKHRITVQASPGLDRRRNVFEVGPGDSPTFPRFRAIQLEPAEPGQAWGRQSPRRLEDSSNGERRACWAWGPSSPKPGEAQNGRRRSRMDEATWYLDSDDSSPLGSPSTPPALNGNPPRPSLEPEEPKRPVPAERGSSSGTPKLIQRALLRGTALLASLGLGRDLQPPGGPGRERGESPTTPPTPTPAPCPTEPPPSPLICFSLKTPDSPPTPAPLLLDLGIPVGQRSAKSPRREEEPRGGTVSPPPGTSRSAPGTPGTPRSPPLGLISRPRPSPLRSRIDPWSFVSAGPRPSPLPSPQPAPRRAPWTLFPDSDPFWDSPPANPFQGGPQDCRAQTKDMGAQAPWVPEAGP
JNK1, sequence (P45983 whole entry, species assumed): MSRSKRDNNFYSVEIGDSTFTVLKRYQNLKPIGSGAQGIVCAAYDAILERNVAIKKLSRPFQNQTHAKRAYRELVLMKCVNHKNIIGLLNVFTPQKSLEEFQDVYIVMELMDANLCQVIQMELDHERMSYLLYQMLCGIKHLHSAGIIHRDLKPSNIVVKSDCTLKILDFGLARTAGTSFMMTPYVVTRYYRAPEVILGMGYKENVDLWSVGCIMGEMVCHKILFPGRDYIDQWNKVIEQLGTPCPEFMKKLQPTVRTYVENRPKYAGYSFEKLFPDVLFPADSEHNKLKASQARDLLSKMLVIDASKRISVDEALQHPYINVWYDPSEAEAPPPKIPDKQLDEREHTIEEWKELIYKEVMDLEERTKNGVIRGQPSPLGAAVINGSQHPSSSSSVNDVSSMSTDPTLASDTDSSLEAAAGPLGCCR
S6K1, sequence (P23443 whole entry, species assumed): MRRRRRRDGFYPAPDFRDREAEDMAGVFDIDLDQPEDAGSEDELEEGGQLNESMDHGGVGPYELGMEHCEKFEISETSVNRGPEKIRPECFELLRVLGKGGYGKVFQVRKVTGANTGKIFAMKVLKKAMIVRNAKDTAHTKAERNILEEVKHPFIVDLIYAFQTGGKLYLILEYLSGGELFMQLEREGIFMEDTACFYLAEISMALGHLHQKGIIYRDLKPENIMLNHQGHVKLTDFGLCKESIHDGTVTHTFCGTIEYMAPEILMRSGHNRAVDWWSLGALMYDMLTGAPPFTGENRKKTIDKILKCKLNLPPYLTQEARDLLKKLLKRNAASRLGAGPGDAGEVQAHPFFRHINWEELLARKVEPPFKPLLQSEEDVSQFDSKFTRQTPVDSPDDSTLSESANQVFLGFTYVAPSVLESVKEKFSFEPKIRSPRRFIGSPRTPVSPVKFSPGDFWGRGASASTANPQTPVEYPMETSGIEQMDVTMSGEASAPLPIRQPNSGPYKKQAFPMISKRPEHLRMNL
PKBa, sequence (P31749 whole entry): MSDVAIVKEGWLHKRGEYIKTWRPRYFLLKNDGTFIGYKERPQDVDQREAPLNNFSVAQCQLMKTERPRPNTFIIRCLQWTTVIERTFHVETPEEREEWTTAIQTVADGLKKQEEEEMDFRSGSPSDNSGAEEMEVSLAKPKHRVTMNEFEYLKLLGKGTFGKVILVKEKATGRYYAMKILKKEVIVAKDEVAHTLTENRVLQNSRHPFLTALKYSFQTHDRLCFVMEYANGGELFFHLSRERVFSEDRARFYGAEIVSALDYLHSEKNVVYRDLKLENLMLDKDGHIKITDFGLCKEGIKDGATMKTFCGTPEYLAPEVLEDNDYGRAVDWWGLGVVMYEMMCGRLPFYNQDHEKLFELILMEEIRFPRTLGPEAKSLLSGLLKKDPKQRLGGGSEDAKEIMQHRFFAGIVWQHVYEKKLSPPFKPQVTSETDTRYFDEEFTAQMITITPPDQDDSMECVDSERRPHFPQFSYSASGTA
TrkA, sequence (P04629 33-796, species assumed): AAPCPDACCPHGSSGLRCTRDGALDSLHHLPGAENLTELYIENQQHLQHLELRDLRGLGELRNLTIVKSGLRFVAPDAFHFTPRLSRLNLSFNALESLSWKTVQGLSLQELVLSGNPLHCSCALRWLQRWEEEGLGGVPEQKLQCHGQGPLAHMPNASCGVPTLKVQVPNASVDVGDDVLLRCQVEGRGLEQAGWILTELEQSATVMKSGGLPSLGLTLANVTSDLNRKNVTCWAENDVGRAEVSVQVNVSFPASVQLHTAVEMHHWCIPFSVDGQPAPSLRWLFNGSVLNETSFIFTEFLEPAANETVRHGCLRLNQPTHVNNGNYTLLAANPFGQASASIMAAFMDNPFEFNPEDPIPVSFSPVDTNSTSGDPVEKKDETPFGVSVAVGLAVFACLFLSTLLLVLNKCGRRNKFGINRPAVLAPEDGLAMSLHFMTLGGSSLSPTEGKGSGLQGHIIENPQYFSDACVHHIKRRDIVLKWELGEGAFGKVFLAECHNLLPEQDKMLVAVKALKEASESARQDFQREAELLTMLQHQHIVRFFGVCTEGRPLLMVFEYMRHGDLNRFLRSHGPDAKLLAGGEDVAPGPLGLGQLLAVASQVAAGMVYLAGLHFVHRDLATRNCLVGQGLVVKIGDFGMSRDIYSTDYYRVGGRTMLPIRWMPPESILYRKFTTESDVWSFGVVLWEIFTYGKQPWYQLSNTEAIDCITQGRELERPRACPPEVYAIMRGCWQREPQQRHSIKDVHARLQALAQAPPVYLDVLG
MSK1, sequence (O75582 whole entry, species assumed): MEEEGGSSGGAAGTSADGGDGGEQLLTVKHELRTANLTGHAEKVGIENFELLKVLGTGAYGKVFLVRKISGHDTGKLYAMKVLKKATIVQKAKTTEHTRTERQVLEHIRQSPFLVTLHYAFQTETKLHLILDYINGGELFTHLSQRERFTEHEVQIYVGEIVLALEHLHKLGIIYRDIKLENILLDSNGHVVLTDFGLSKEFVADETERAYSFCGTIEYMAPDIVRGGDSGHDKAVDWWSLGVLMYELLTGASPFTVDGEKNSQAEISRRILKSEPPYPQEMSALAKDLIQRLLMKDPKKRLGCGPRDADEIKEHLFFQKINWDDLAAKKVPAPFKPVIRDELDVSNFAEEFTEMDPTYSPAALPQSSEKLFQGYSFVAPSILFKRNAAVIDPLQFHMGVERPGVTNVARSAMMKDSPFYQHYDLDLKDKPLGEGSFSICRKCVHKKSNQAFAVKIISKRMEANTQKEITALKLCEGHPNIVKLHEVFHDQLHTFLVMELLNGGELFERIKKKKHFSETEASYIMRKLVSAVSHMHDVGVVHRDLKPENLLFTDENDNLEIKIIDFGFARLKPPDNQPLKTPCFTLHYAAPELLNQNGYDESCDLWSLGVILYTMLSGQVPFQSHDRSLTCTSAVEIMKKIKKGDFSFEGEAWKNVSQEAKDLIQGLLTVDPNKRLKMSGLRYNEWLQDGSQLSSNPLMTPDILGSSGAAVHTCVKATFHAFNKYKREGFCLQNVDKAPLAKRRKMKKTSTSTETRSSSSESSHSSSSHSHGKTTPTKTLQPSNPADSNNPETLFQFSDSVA
PIM1, sequence (P11309 whole entry, species assumed): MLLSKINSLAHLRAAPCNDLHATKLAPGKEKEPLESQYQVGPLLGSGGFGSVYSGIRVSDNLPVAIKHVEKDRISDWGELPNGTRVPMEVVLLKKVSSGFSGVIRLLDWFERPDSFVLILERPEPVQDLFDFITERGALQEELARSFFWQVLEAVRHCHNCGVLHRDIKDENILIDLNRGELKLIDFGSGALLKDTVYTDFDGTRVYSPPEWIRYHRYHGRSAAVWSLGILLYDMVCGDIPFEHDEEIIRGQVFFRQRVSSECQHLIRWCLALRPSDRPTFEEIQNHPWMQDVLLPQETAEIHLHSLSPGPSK

## O=C(Nc1nc2ccc(F)cc2s1)c1ccccc1 [Compound 03-92]
TAK1
  residual kinase activity, TAK1: 79
JNK1
  residual kinase activity, JNK1: 94
MLK3
  residual kinase activity, MLK3: 49
PLK1
  residual kinase activity, PLK1: 92
HIPK2
  residual kinase activity, HIPK2: 78
MSK1
  residual kinase activity, MSK1: 81
SRPK1
  residual kinase activity, SRPK1: 19
HER4
  residual kinase activity, HER4: 90
NEK6
  residual kinase activity, NEK6: 106
JAK2
  residual kinase activity, JAK2: 109
AMPK (hum)
  residual kinase activity, AMPK (hum): 76
CAMK1
  residual kinase activity, CAMK1: 97
TrkA
  residual kinase activity, TrkA: 74
S6K1
  residual kinase activity, S6K1: 79
PIM1
  residual kinase activity, PIM1: 69
PKBa
  residual kinase activity, PKBa: 99
PDK1
  residual kinase activity, PDK1: 91

## CC(=O)Nc1nc2ccc(F)cc2s1 [Compound 03-94]
TAK1
  residual kinase activity, TAK1: 26
JNK1
  residual kinase activity, JNK1: 82
MLK3
  residual kinase activity, MLK3: 46
PLK1
  residual kinase activity, PLK1: 93
HIPK2
  residual kinase activity, HIPK2: 27
MSK1
  residual kinase activity, MSK1: 88
SRPK1
  residual kinase activity, SRPK1: 75
HER4
  residual kinase activity, HER4: 101
NEK6
  residual kinase activity, NEK6: 92
JAK2
  residual kinase activity, JAK2: 49
AMPK (hum)
  residual kinase activity, AMPK (hum): 59
CAMK1
  residual kinase activity, CAMK1: 86
TrkA
  residual kinase activity, TrkA: 58
S6K1
  residual kinase activity, S6K1: 67
PIM1
  residual kinase activity, PIM1: 40
PKBa
  residual kinase activity, PKBa: 94
PDK1
  residual kinase activity, PDK1: 87

## COc1ccc2sc(NC(=O)c3ccccc3)nc2c1 [Compound 03-95]
TAK1
  residual kinase activity, TAK1: 45
JNK1
  residual kinase activity, JNK1: 90
MLK3
  residual kinase activity, MLK3: 40
PLK1
  residual kinase activity, PLK1: 77
HIPK2
  residual kinase activity, HIPK2: 74
MSK1
  residual kinase activity, MSK1: 67
SRPK1
  residual kinase activity, SRPK1: 42
HER4
  residual kinase activity, HER4: 81
NEK6
  residual kinase activity, NEK6: 86
JAK2
  residual kinase activity, JAK2: 86
AMPK (hum)
  residual kinase activity, AMPK (hum): 75
CAMK1
  residual kinase activity, CAMK1: 76
TrkA
  residual kinase activity, TrkA: 35
S6K1
  residual kinase activity, S6K1: 77
PIM1
  residual kinase activity, PIM1: 19
PKBa
  residual kinase activity, PKBa: 80
PDK1
  residual kinase activity, PDK1: 89

## COc1ccc2nc(NC(=O)c3ccccc3)sc2c1 [Compound 03-98]
TAK1
  residual kinase activity, TAK1: 60
JNK1
  residual kinase activity, JNK1: 95
MLK3
  residual kinase activity, MLK3: 20
PLK1
  residual kinase activity, PLK1: 102
HIPK2
  residual kinase activity, HIPK2: 41
MSK1
  residual kinase activity, MSK1: 90
SRPK1
  residual kinase activity, SRPK1: 10
HER4
  residual kinase activity, HER4: 73
NEK6
  residual kinase activity, NEK6: 94
JAK2
  residual kinase activity, JAK2: 81
AMPK (hum)
  residual kinase activity, AMPK (hum): 94
CAMK1
  residual kinase activity, CAMK1: 68
TrkA
  residual kinase activity, TrkA: 60
S6K1
  residual kinase activity, S6K1: 76
PIM1
  residual kinase activity, PIM1: 76
PKBa
  residual kinase activity, PKBa: 103
PDK1
  residual kinase activity, PDK1: 101

## O=C(Nc1nc2ccc(C(F)(F)F)cc2s1)c1ccccc1 [Compound 03-99]
TAK1
  residual kinase activity, TAK1: 95
JNK1
  residual kinase activity, JNK1: 86
MLK3
  residual kinase activity, MLK3: 72
PLK1
  residual kinase activity, PLK1: 112
HIPK2
  residual kinase activity, HIPK2: 90
MSK1
  residual kinase activity, MSK1: 70
SRPK1
  residual kinase activity, SRPK1: 61
HER4
  residual kinase activity, HER4: 85
NEK6
  residual kinase activity, NEK6: 94
JAK2
  residual kinase activity, JAK2: 87
AMPK (hum)
  residual kinase activity, AMPK (hum): 73
CAMK1
  residual kinase activity, CAMK1: 84
TrkA
  residual kinase activity, TrkA: 84
S6K1
  residual kinase activity, S6K1: 86
PIM1
  residual kinase activity, PIM1: 78
PKBa
  residual kinase activity, PKBa: 91
PDK1
  residual kinase activity, PDK1: 84
